Measured values as given in patent US20120115845A1, “THERAPEUTIC AGENTS” (priority 2007, published 2012).

What was measured:
[1] = biological target: T1, human GHS receptor (Homo sapiens, UniProt Q92847); experiment: h bind IC50 (binding assay, Table 1); details: human receptor; Table 1
[2] = biological target: T1, human GHS receptor; experiment: Ghrelin IP1 agonist assay (IP1 HTRF); type: cell-based; design: expressed in transfected cells; host or cells: HEK293s; details: for Emax: 2 h, agonist effect as % maximal effect of GHRP-6 (5 μM), read-out: h IP1 ag %; for EC50: HEK293s cells stably expressing human GHS receptor, 2 hours at 37° C., read-out: h IP1 ag EC50
Summary of the method: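 Cells: HEK293s stably expressing human GHS receptor, in stimulation buffer containing 0.02% fatty acid free BSA.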

T1 sequence (Q92847 whole entry): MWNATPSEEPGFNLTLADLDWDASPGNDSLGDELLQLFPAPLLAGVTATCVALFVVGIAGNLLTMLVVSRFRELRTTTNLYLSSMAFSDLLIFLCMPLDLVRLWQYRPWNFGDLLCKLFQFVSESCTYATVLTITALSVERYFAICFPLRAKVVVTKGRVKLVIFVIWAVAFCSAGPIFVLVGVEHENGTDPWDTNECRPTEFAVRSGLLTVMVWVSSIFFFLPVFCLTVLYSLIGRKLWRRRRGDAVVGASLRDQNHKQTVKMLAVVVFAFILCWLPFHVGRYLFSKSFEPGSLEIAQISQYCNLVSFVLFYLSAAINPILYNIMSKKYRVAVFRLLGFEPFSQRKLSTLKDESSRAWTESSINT

Row | SMILES | IC50 [1] | Emax [2] | EC50 [2]
1 | CN1CCN(CCCS(=O)(=O)c2ccc3nc(NC(=O)NC(=O)c4cc(-n5cccn5)ccc4Cl)sc3c2)CC1 [Example 88, 2-Chloro-N-(6-(3-(4-methylpiperazin-1-yl)propylsulfonyl)benzothiazol-2-ylcarbamoyl)-5-(1H-pyrazol-1-yl)benzamide] | 0.7 nM | 4.42% | ≥ 25000 nM
2 | O=C(NC(=O)c1ccccc1Cl)Nc1nc2ccc(S(=O)(=O)CCCCl)cc2s1 [Example 148, 2-Chloro-N-[[6-(3-chloropropylsulfonyl)benzothiazol-2-yl]carbamoyl]benzamide] | 830 nM | 17.7% | 52.9 nM
3 | CC(C)N1CCC(S(=O)(=O)c2ccc3nc(NC(=O)NC(=O)c4ccccc4Cl)sc3c2)C1 (stereo not drawn) [Example 162, 2-Chloro-N-[[6-(1-propan-2-ylpyrrolidin-3-yl)sulfonylbenzothiazol-2-yl]carbamoyl]benzamide] | 296 nM | 48.3% | 11.4 nM
4 | CCOc1ccc(Cl)c(C(=O)NC(=O)Nc2nc3ccc(S(C)(=O)=O)cc3s2)c1 [Example 53, 2-Chloro-5-ethoxy-N-(6-(methylsulfonyl)benzothiazol-2-ylcarbamoyl)benzamide] | 10 nM | 0% | ≥ 25000 nM
5 | CS(=O)(=O)c1ccc2nc(NC(=O)NC(=O)c3cc(Br)ccc3Cl)sc2c1 [Example 161, 5-Bromo-2-chloro-N-[(6-methylsulfonylbenzothiazol-2-yl)carbamoyl]benzamide] | 105 nM | 56% | 6.18 nM
6 | CN1CCC(Oc2ccc(Cl)c(C(=O)NC(=O)Nc3nc4ccc(S(C)(=O)=O)cc4s3)c2)CC1 [Example 244, 2-chloro-5-(1-methylpiperidin-4-yloxy)-N-(6-(methylsulfonyl)benzo[d]thiazol-2-ylcarbamoyl) benzamide] | 2060 nM | 22.6% | 19700 nM
7 | O=C(NC(=O)c1ccccc1Cl)Nc1nc2ccc(S(=O)(=O)Cc3ccccn3)cc2s1 [Example 178, 2-Chloro-N-[[6-(pyridin-2-ylmethylsulfonyl)benzothiazol-2-yl]carbamoyl]benzamide] | 108 nM | 18.7% | 77.7 nM
8 | CCN1CCCC(S(=O)(=O)c2ccc3nc(NC(=O)NC(=O)c4ccccc4Cl)sc3c2)C1 (stereo not drawn) [Example 142, 2-Chloro-N-[[6-[(1-ethyl-3-piperidyl)sulfonyl]benzothiazol-2-yl]carbamoyl]benzamide] | 851 nM | 24.5% | 35.1 nM
9 | CCN1CCN(CCCS(=O)(=O)c2ccc3nc(NC(=O)NC(=O)c4ccccc4Cl)sc3c2)CC1 [Example 197, 2-Chloro-N-[[6-[3-(4-ethylpiperazin-1-yl)propylsulfonyl]benzothiazol-2-yl]carbamoyl]benzamide] | 0.4 nM | 55.8% | 2.02 nM
10 | O=C(NC(=O)c1ccccc1Cl)Nc1nc2ccc(S(=O)(=O)CCO)cc2s1 [Example 41, 2-Chloro-N-[[6-(2-hydroxyethylsulfonyl)benzothiazol-2-yl]carbamoyl]benzamide] | 535 nM | 18.1% | 95.8 nM
11 | COCCCS(=O)(=O)c1ccc2nc(NC(=O)NC(=O)c3ccccc3Cl)sc2c1 [Example 192, 2-Chloro-N-[[6-(3-methoxypropylsulfonyl)benzothiazol-2-yl]carbamoyl]benzamide] | 52.4 nM | 23.8% | 51.3 nM
12 | CN1CCN(CCCS(=O)(=O)c2ccc3nc(NC(=O)NC(=O)c4cc(OS(C)(=O)=O)ccc4Cl)sc3c2)CC1 [Example 92, 4-Chloro-3-(6-(3-(4-methylpiperazin-1-yl)propylsulfonyl)benzothiazol-2-ylcarbamoylcarbamoyl)phenyl methanesulfonate] | 10.1 nM | 4.99% | > 4870 nM
13 | O=C(NC(=O)c1ccccc1Cl)Nc1nc2ccc(S(=O)(=O)CCNCC3CC3)cc2s1 [Example 34, 2-Chloro-N-[[6-[2-(cyclopropylmethylamino)ethylsulfonyl]benzothiazol-2-yl]carbamoyl]benzamide] | 99.3 nM | 46.7% | 11.1 nM
14 | O=C(NC(=O)c1ccccc1Cl)Nc1nc2ccc(S(=O)(=O)C3CCNC3)cc2s1 (stereo not drawn) [Example 44, 2-Chloro-N-[(6-pyrrolidin-3-ylsulfonylbenzothiazol-2-yl)carbamoyl]benzamide] | 18.2 nM | 49% | 5.73 nM
15 | CC(C)(C)OC(=O)N1CCC(CS(=O)(=O)c2ccc3nc(NC(=O)NC(=O)c4ccccc4Cl)sc3c2)CC1 [Example 217, tert-Butyl 4-[[2-[(2-chlorobenzoyl)carbamoylamino]benzothiazol-6-yl]sulfonylmethyl]piperidine-1-carboxylate] | 70.4 nM | 36.9% | 118 nM
16 | O=C(NC(=O)c1ccccc1Cl)Nc1nc2ccc(S(=O)(=O)CCN3CCCCC3)cc2s1 [Example 33, 2-Chloro-N-[[6-[2-(1-piperidyl)ethylsulfonyl]benzothiazol-2-yl]carbamoyl]benzamide] | 88.5 nM | 41.5% | 24.9 nM

Continued by falling IC50 [1], values first:

Row | IC50 [1] | Emax [2] | EC50 [2] | SMILES
17 | 3790 nM | 10.6% | ≥ 20000 nM | CC(=O)N1CCC(Oc2ccc(Cl)c(C(=O)NC(=O)Nc3nc4ccc(S(C)(=O)=O)cc4s3)c2)C1 (stereo not drawn) [Example 227, 5-(1-acetylpyrrolidin-3-yloxy)-2-chloro-N-(6-(methylsulfonyl)benzo[d]thiazol-2-ylcarbamoyl)benzamide]
18 | 3780 nM | 6.82% | 5130 nM | CN1CCC(Oc2ccc(Cl)c(C(=O)NC(=O)Nc3nc4ccc(S(C)(=O)=O)cc4s3)c2)C1 (stereo not drawn) [Example 250, 2-chloro-5-(1-methylpyrrolidin-3-yloxy)-N-(6-(methylsulfonyl)benzo[d]thiazol-2-ylcarbamoyl) benzamide]
19 | 1740 nM | 9.06% | ≥ 25000 nM | CS(=O)(=O)c1ccc2nc(NC(=O)NC(=O)c3cc(CN4CCCC4)ccc3Cl)sc2c1 [Example 62, 2-Chloro-5-pyrrolidin-1-ylmethyl-N-(6-(methylsulfonyl)benzothiazol-2-ylcarbamoyl)benzamide]
20 | 296 nM | 44% | 18.6 nM | O=C(NC(=O)c1ccccc1Cl)Nc1nc2ccc(S(=O)(=O)[C@H]3CCNC3)cc2s1 [Example 171, 2-Chloro-N-[[6-[(3S)-pyrrolidin-3-yl]sulfonylbenzothiazol-2-yl]carbamoyl]benzamide]
21 | 234 nM | 24% | 61.1 nM | O=C(NC(=O)c1ccccc1Cl)Nc1nc2ccc(S(=O)(=O)CCN3C[C@@H]4C[C@H]3CO4)cc2s1 [Example 37, 2-Chloro-N-[[6-[2-[(1S,4S)-3-oxa-6-azabicyclo[2.2.1]hept-6-yl]ethylsulfonyl]benzothiazol-2-yl]carbamoyl]benzamide]
22 | 51.7 nM | 46% | 42.2 nM | CN(C)CCOCCS(=O)(=O)c1ccc2nc(NC(=O)NC(=O)c3ccccc3Cl)sc2c1 [Example 43, 2-Chloro-N-[[6-[2-(2-dimethylaminoethoxy)ethylsulfonyl]benzothiazol-2-yl]carbamoyl]benzamide]
23 | 43 nM | 44.6% | 33.7 nM | CC(C)CNCCS(=O)(=O)c1ccc2nc(NC(=O)NC(=O)c3ccccc3Cl)sc2c1 [Example 28, 2-Chloro-N-[[6-[2-(2-methylpropylamino)ethylsulfonyl]benzothiazol-2-yl]carbamoyl]benzamide]
24 | 10.8 nM | 74.3% | 2.23 nM | O=C(NC(=O)c1ccccc1Cl)Nc1nc2ccc(S(=O)(=O)CCCNCC3CC3)cc2s1 [Example 151, 2-Chloro-N-[[6-[3-(cyclopropylmethylamino)propylsulfonyl]benzothiazol-2-yl]carbamoyl]benzamide]
25 | 5.69 nM | 0% | ≥ 20000 nM | CN1CCC(S(=O)(=O)c2ccc3nc(NC(=O)NC(=O)c4cc(-n5cccn5)c(F)cc4Cl)sc3c2)CC1 [Example 254, 2-chloro-4-fluoro-N-(6-(1-methylpiperidin-4-ylsulfonyl)benzo [d]thiazol-2-ylcarbamoyl)-5-(1H-pyrazol-1-yl)benzamide]
26 | 4.43 nM | 0% | ≥ 20000 nM | COc1cc(Cl)c(C(=O)NC(=O)Nc2nc3ccc(S(=O)(=O)C4CCN(C)CC4)cc3s2)cc1-n1cccn1 [Example 264, 2-chloro-4-methoxy-N-(6-(1-methylpiperidin-4-ylsulfonyl)benzo [d]thiazol-2-ylcarbamoyl) 5-(1H-pyrazol-1-yl)benzamide]
27 | 2.7 nM | 41.4% | 4.53 nM | COCCN1CCN(CCCS(=O)(=O)c2ccc3nc(NC(=O)NC(=O)c4ccccc4Cl)sc3c2)CC1 [Example 200, 2-Chloro-N-[[6-[3-[4-(2-methoxyethyl)piperazin-1-yl]propylsulfonyl]benzothiazol-2-yl]carbamoyl]benzamide]
28 | 0.9 nM | 29.7% | 4.54 nM | CN(C)C1CCN(CCCS(=O)(=O)c2ccc3nc(NC(=O)NC(=O)c4ccccc4Cl)sc3c2)CC1 [Example 201, 2-Chloro-N-[[6-[3-(4-dimethylamino-1-piperidyl)propylsulfonyl]benzothiazol-2-yl]carbamoyl]benzamide]
29 | 0.2 nM | 0.18% | ≥ 25000 nM | CN1CCN(CCCS(=O)(=O)c2ccc3nc(NC(=O)NC(=O)c4cc(-n5cccc5)ccc4Cl)sc3c2)CC1 [Example 85, 2-Chloro-N-(6-(3-(4-methylpiperazin-1-yl)propylsulfonyl)benzothiazol-2-ylcarbamoyl)-5-(1H-pyrrol-1-yl)benzamide]
